Values joined by “and” are separate entries in the source; they are usually repeats but may differ in a detail not shown here. Identical values can stand only once.
Legend:
isolated embryos = assay: Potting and transplant rate, co-treatment with benoxacor or dichlormid during colchicine treatment; type: in vivo, maize
Source text: As used herein, the term “potted rate” or “potting rate” refers to the percent of germinated embryos successfully transferred to soil from total treated haploid embryos. The “potted rate” is used as an indication of plant health in monitoring the success of recovery and growth after treatment of haploids. As used herein, the term “transplant rate” refers to the survival of healthy plants after embryos were germinated and transferred to soil.
Benoxacor was applied to isolated embryos of 2 genoytypes, with 2 replicates at levels of 0, 20, 50, 100 or 200 mg/L during colchicine treatment in the doubling media. The co-treatments were incubated for durations of 24 or 48 hours. […] None of the 48-hour co-treatments performed better than the equivalent co-treatment at 24 hours (see Table 18).
Dichlormid was applied to isolated embryos from 2 genotypes, with 2 replicates at levels of 0, 20, 50, 100, 200 and 300 mg/L during colchicine treatment in the doubling media. The co-treatments were incubated for durations of 24 or 48 hours. […] The highest percent transplanted rates were 92% and 88% for co-treatments 100 mg/L and 50 mg/L both at 24 hours, respectively. None of the 48-hour co-treatments performed better than the equivalent co-treatment at 24 hours (see Table 19).

corn embryos = assay: Uptake of metcamifen and metabolism of colchicine in corn embryos (LCMS); type: in vitro ADME; details: 500 ppm colchicine, corn embryos
Protocol: An experiment was completed to evaluate the uptake of metcamifen into corn embryos, whether colchicine is metabolized in the embryos, and if metcamifen increased the rate of colchicine metabolism. Corn embryos were co-treated with 500 ppm colchicine in the presence of 200 ppm, 1000 ppm or no metcamifen (control) for 24 or 48 hours and frozen. One biological replicate was represented by five embryos, and three biological replicates were used per co-treatment.
Prior to extraction, embryos were washed for 20 seconds in 80:20 (v/v) acetonitrile:H2O to remove any colchicine and metcamifen on the surface. Each replicate was extracted in 0.5 ml methanol using a fast prep maceration method. Then, samples were diluted 1 in 10 prior to analysis by Liquid Chromatography Mass Spectrometry (LCMS). Samples were analyzed alongside matrix matched standards of colchicine and metcamifen. Metabolite investigations were performed to identify any metabolites.

In the case of `CC1COc2ccccc2N1C(=O)C(Cl)Cl` (stereo not shown) [Benoxacor, benoxacor], the “Potting Rate Mean” value (isolated embryos; benoxacor 20 mg/L, 24 hours) was 79%, the “Potting Rate Mean” value (isolated embryos; benoxacor 50 mg/L, 24 hours) was 90% and the “Potting Rate Mean” value (isolated embryos; benoxacor 50 mg/L, 48 hours) was 40%. The “Potting Rate Mean” value (isolated embryos; benoxacor 100 mg/L, 24 hours) was 79%, the “Potting Rate Mean” value (isolated embryos; benoxacor 100 mg/L, 48 hours) was 60% and the “Potting Rate Mean” value (isolated embryos; benoxacor 200 mg/L, 48 hours) was 74%.

For `C=CCN(CC=C)C(=O)C(Cl)Cl` [Dichlormid, dichlormid], the “Potting Rate Mean” value (isolated embryos; dichlormid 20 mg/L, 24 hours) was 89%, the “Transplant Rate Mean” value (isolated embryos; dichlormid 20 mg/L, 24 hours) was 86% and the “Potting Rate Mean” value (isolated embryos; dichlormid 50 mg/L, 24 hours) was 90% and 91%. The “Transplant Rate Mean” value (isolated embryos; dichlormid 50 mg/L, 24 hours) was 88% and 89%, the “Potting Rate Mean” value (isolated embryos; dichlormid 100 mg/L, 24 hours) was 96% and 97% and the “Transplant Rate Mean” value (isolated embryos; dichlormid 100 mg/L, 24 hours) was 92%. The “Potting Rate Mean” value (isolated embryos; dichlormid 100 mg/L, 48 hours) was 70%, the “Transplant Rate Mean” value (isolated embryos; dichlormid 100 mg/L, 48 hours) was 70% and the “Potting Rate Mean” value (isolated embryos; dichlormid 200 mg/L, 48 hours) was 86%. The “Transplant Rate Mean” value (isolated embryos; dichlormid 200 mg/L, 48 hours) was 84%, the “Potting Rate Mean” value (isolated embryos; dichlormid 300 mg/L, 48 hours) was 95% and the “Transplant Rate Mean” value (isolated embryos; dichlormid 300 mg/L, 48 hours) was 93%.

In the case of `COc1cc2c(c(OC)c1OC)-c1ccc(OC)c(=O)cc1[C@@H](NC(C)=O)CC2` [colchicine], the “amount of colchicine recovered after 48 hours relative to 24 hours” value (corn embryos) was “double”.
